# Test results from patent US20250075248A1, “SYSTEMS, METHODS, AND DEVICES FOR ANTIMICROBIAL SUSCEPTIBILITY TESTING” (Deepull Diagnostics S.L., priority 2022, published 2025).
# Columns and labels:
# Assay type in all cases: cell-based
# [1] = system: Klebsiella pneumoniae ATCC13883; assay: Broth microdilution method MIC; conditions: K. pneumoniae ATCC13883, read-out: MIC according to broth microdilution method
# [2] = system: Klebsiella pneumoniae ATCC13883; assay: Microscopy-based AST (MIC) from spiked blood tube sample after lysis, enrichment and immunomagnetic separation
# Procedure: First, Streptavidin coated beads were washed and immobilized. […] The typical binding capacity per mg (100 μL) of the magnetic beads used is approximately 20 μg of biotinylated antibody. After the coating, some washes with a phosphate saline buffer containing 0.01% of BSA (w/v) (adjusted pH 7.4) were performed. Finally, beads were resuspended to the desired concentration for the application. The antibody used was a biotin Klebsiella Polyclonal Antibody (PA1-73177, Invitrogen) and the magnetic beads used were Dynabeads MyOne Streptavidin T1 (65601, Thermofisher Scientific).
# Blood samples were prepared from a single large blood pool from donors collected in 10 mL EDTA blood tubes which was spiked with the appropriate amount of bacteria (Klebsiella pneumoniae ATCC13883) depending on the target inoculum (around 100 CFU/10 mL). After the pool was spiked, 10 mL were transferred to a previously labelled 15 mL tube containing a lysing agent (700 μL of Isolator BC0507C, Oxoid) and an immiscible fluorocarbon oil (20 μL of Fluorinert™ FC-40 F9755, Sigma-Aldrich). To lyse and concentrate, samples were incubated for a short period of time (30 seconds) under rotatory movement at low speed (10 rpm) and centrifugated at 12.000 g force for 5 minutes with a fixed angle rotor. The supernatant of each sample was discarded until 500 μL used to prepare the matrix for the enrichment step. […]
# For the immunomagnetic separation of the bacteria from the blood, 100 μL of antibody coated beads were added to each sample tube. […] These samples were also observed under an inverted fluorescence microscope in order to know the bacteria present in the sample and calculate the amount needed to perform the AST test, which was the next and last step in this end-to-end assay. 5 μL of each sample were transferred to a 384-well plate with a flat polystyrene film bottom and incubated with fluorescence dyes (SYBR Green and Propidium Iodide) during 10 min at room temperature in the dark. […]
# [3] = system: Staphylococcus aureus resistant (ATCC43300); assay: Broth microdilution method MIC; conditions: S. aureus ATCC43300
# [4] = system: Staphylococcus aureus resistant (ATCC43300); assay: Microscopy-based AST (MIC) from liquid culture
# Procedure: (§1) The minimal inhibitory concentration was determined for two strains of Gram-positive bacteria Staphylococcus aureus, one susceptible (ATCC29213) and one resistant (ATCC43300) to erythromycin, according to embodiments described herein. […] Bacteria cultures were diluted in culture media (Mueller Hinton cation adjusted broth) and were incubated at a final concentration of 2×10^4 CFU/mL during 5 hours at 37° C. at different concentrations of […] in a final volume of 10 μL. S. aureus strain susceptible to erythromycin was tested at 1, 0.5, 0.25, 0.125, 0.06 and 0.03 mg/L, whereas resistant strain was tested at 4, 2, 1, 0.5, 0.25 and 0.125 mg/L of erythromycin. Three replicates were performed for each antibiotic concentration.
# (§2) Samples were analyzed at time 0 of incubation and after 5 hours incubation (with and without antibiotic). Samples were incubated with fluorescence dyes (SYBR Green and Propidium Iodide) during 10 minutes at room temperature in the dark. After dye incubation a sample of 1 μL was diluted with 4 μL of buffer (NaCl 0.9%) and transferred to a 384-well plate with flat polystyrene film bottom. The 384-well plate was centrifuged during 1 minute at 3000 g in a swinging-bucket movement and observed in an inverted fluorescence microscope. For each sample, a composite image covering the bottom of each well was constructed. Images were analyzed with a custom software to count bacteria, detect filamentous bacteria, counts red bacteria, and record the brightness of bacteria.
# (§3) Data obtained from images was used to perform a Graph either for S. aureus susceptible and resistant to erythromycin (FIGS. 25A and 25B, respectively).
# [5] = system: Staphylococcus aureus susceptible (ATCC29213); assay: Microscopy-based AST (MIC) from liquid culture
# Procedure: as §1, §2, §3
# [6] = system: Staphylococcus aureus susceptible (ATCC29213); assay: Broth microdilution method MIC; conditions: S. aureus ATCC29213
# [7] = system: Klebsiella pneumoniae (IHMA1977064); assay: Microscopy-based AST (MIC) from liquid culture
# Procedure: The minimal inhibitory concentration was determined using embodiments disclosed herein for one strain of Gram-negative bacteria Klebsiella pneumoniae (IHMA1977064) with an MIC of 8 mg/L to meropenem according to the broth microdilution method. Bacteria was grown in liquid culture until an exponential phase in culture media. The cultures were diluted in culture media (Mueller Hinton cation adjusted broth) and was incubated at a final concentration of 2×10^4 CFU/mL during 5 hours at 37° C. at different concentrations of meropenem in a final volume of 10 μL. Meropenem concentrations tested were 32, 16, 8, 4, 2 and 1 mg/L […]. Three replicates were performed for each antibiotic concentration.
# Samples were analyzed at time 0 of incubation and after 5 hours incubation (with and without antibiotic). 5 μL of each sample were transferred to a 384-well plate with flat polystyrene film bottom and incubated with fluorescence dyes (SYBR Green and Propidium Iodide) during 10 minutes at room temperature in the dark. The 384-well plate was centrifuged during 1 minute at 3000 g in a swinging-bucket movement and observed in an inverted fluorescence microscope. For each sample, a composite image covering the bottom of each well was constructed. Images were analyzed with a custom software to count bacteria, detect filamentous bacteria, counts red bacteria, and record the brightness of bacteria. These images are illustrated in FIG. 24A.
# This graph is illustrated in FIG. 24B.
# [8] = system: Klebsiella pneumoniae (IHMA1977064); assay: Broth microdilution method MIC; conditions: K. pneumoniae IHMA1977064, read-out: MIC according to broth microdilution method
# [9] = system: Klebsiella pneumoniae (ATCC13883); assay: Microscopy-based AST (MIC) from liquid culture
# Procedure: Bacteria was grown in a liquid culture until an exponential phase in culture media. The cultures were diluted in culture media (Mueller Hinton cation adjusted broth) and was incubated at a final concentration of 2×10^4 CFU/mL during 5 hours at 37° C. at different concentrations of […] in a final volume of 10 μL. Gentamicin concentrations tested were 4, 2, 1, 0.5, 0.25 and 0.125 mg/L. Three replicates were performed for each antibiotic concentration.
# as §2, with “dye incubation,” for “dye incubation”, “bacteria. These images are illustrated in FIG. 23A” for “bacteria.”
# This graph is illustrated in FIG. 23B.
# [10] = system: Klebsiella pneumoniae ATCC13883; assay: Microscopy-based AST (MIC) from spiked blood culture bottle after immunomagnetic separation
# Procedure: First, Streptavidin coated beads were washed and immobilized. The washing buffer and the immobilization process may be different depending on the application. […] The typical binding capacity per mg (100 μL) of magnetic beads used is approximately 20 μg of biotinylated antibody. After the coating, some washes were performed with a phosphate saline buffer containing 0.01% of BSA (w/v) (adjusted pH 7.4) and then beads were finally resuspended to the desired concentration for the application. The antibody used was a biotin Klebsiella Polyclonal Antibody (PA1-73177, Invitrogen) and the magnetic beads used were Dynabeads MyOne Streptavidin T1 (65601, Thermofisher Scientific).
# Blood samples were prepared from a previously mixed single large blood pool which was spiked with the appropriate amount of bacteria (Klebsiella pneumoniae ATCC13883) depending on the target inoculum (around 100 CFU). After the pool was spiked, 10 mL were transferred to a previously labelled blood culture system (442023, BD BACTEC™ Plus Aerobic/F) and mixed with an agitation platform (5 minutes at 150 rpm). […]
# The immunomagnetic separation of the bacteria was performed using a 15 mL tube containing 5 mL of a matrix extracted from a blood culture bottle and 100 μL of beads coated with anti-K. pneumoniae antibodies. […] The samples were also observed under an inverted fluorescence microscope in order to determine the number of bacteria present in the sample and calculate the adjustment needed to perform the AST test. 5 μL of each sample were transferred to a 384-well plate with flat polystyrene film bottom and incubated with fluorescence dyes (SYBR Green and Propidium Iodide) during 10 minutes at room temperature in the dark. The 384-well plate was centrifuged during 1 minute at 3000 g in a swinging-bucket centrifuge and observed in an inverted fluorescence microscope. […] Images were analyzed with a custom software to determine the number of bacteria. […]
# Samples were analyzed at time 0 of incubation and after 5 h incubation (with and without antibiotic). […]
compound,measurement,setting,value
"O=C(O)c1cn(C2CC2)c2cc(N3CCNCC3)c(F)cc2c1=O [ciprofloxacin, Ciprofloxacin]",MIC,[1],0.03 µg/mL
same,MIC,"[2]; Klebsiella pneumoniae, ATCC13883, 5 h",0.015 µg/mL
same,bacterial growth after 5 hours incubation,[2]; at 0.008 and 0.004 mg/L,growth
same,bacterial growth after 5 hours incubation,[2]; at a concentration ≥0.015 mg/L,did not grow
"CC[C@H]1OC(=O)[C@H](C)[C@@H](O[C@H]2C[C@@](C)(OC)[C@@H](O)[C@H](C)O2)[C@H](C)[C@@H](O[C@@H]2O[C@H](C)C[C@H](N(C)C)[C@H]2O)[C@](C)(O)C[C@@H](C)C(=O)[C@H](C)[C@@H](O)[C@]1(C)O [erythromycin, Erythromycin]",MIC,[3],≥ 512 µg/mL
same,MIC,"[4]; Staphylococcus aureus, S. aureus ATCC43300, 2×10^4 CFU/mL, 5 hours at 37° C., highest concentration tested 4 mg/L",≥ 4 µg/mL
same,bacterial growth after 5 hours incubation,[4]; at 4 mg/L and lower concentrations,showed growth
same,MIC,"[5]; Staphylococcus aureus, S. aureus ATCC29213, 2×10^4 CFU/mL, 5 hours at 37° C., image analysis",0.25 µg/mL
same,bacterial growth after 5 hours incubation,[5]; at 0.125 mg/L,showed growth
same,bacterial growth after 5 hours incubation,[5]; at a concentration ≥0.25 mg/L,did not grow
same,MIC,[6],0.25 to 0.5 µg/mL
"C[C@@H](O)[C@H]1C(=O)N2C(C(=O)O)=C(S[C@@H]3CN[C@H](C(=O)N(C)C)C3)[C@H](C)[C@H]12 [meropenem, Meropenem]",MIC,"[7]; Klebsiella pneumoniae, liquid culture, 2×10^4 CFU/mL, 5 hours at 37° C., image analysis",4 µg/mL
same,bacterial growth after 5 hours incubation,[7]; at 2 and 1 mg/L,bacterial growth
same,bacterial growth after 5 hours incubation,[7]; at a concentration ≥4 mg/L,did not grow
same,MIC,[8],8 µg/mL
Gentamicin,bacterial growth after 5 hours incubation,[9]; at 0.125 mg/L,bacterial growth
same,bacterial growth after 5 hours incubation,[9]; at a concentration ≥0.25 mg/L,did not grow
same,MIC,"[9]; liquid culture, 2×10^4 CFU/mL, 5 hours at 37° C., image analysis",0.25 µg/mL
same,bacterial growth after 5 hours incubation,[10]; at 0.125 and 0.06 mg/L,growth
same,bacterial growth after 5 hours incubation,[10]; at a concentration ≥0.25,did not grow
same,MIC,"[10]; blood culture bottle sample, 2×10^4 CFU/mL, 5 hours at 37° C., image analysis",0.25 µg/mL
